Assay results taken from patent US20190133997A1, “ARTEMISININ ANALOG, AND USE, METHOD, AND COMPOSITION FOR PROMOTING LIPID CATABOLISM AND IMPROVING SUGAR METABOLISM” (FUDAN UNIVERSITY, priority 2016, published 2019).

Tested on: BMP4-directed C3H10T1/2
Test: Artemisinin and analogues on BMP4-directed C3H10T1/2 (morphology, Western blot)
Type: cell-based
Conditions: for cell morphology of C3H10T1/2: concentration shown in FIG. 8, from Day 0 of differentiation, vs control
Procedure: 4.3.1 Culture and Differentiation of C3H10T1/2 According to Method 2.4.1.
Artemisinin, artesunate and dihydroartemisinin were stored in DMSO at a storage concentration of 10 mMol/L. The concentration shown in FIG. 8 was added on Day 0 of differentiation. Fresh medium was replaced every two days, and the corresponding concentrations of compounds were added until the cells differentiated to mature.
The method for extracting C3H10T1/2 cell total protein was the same as 2.4.3;
Western blot method and catalog number of antibody was the same as 2.4.4.

| SMILES | expression of brown fat-related genes (C3H10T1/2) | cell morphology of C3H10T1/2 | expression level of UCP1 (dihydroartemisinin 1, 2.5, 5, 7.5 Mol/L, Western blot) | expression level of PGC1α (dihydroartemisinin, Western blot) |
| --- | --- | --- | --- | --- |
| C[C@H]1[C@@H](O)O[C@@H]2O[C@@]3(C)CC[C@H]4[C@H](C)CC[C@@H]1[C@@]24OO3 [dihydroartemisinin] | up-regulated | exhibited similar morphological characteristics | gradually increase with the increase of the concentration of dihydroartemisinin | gradually increase with the increase of the concentration of dihydroartemisinin |
| C[C@H]1[C@H](OC(=O)CCC(=O)O)O[C@@H]2O[C@@]3(C)CC[C@H]4[C@H](C)CC[C@@H]1[C@@]24OO3 [artesunate] |  | exhibited similar morphological characteristics |  |  |
| C[C@@H]1CC[C@H]2[C@@H](C)C(=O)O[C@@H]3O[C@@]4(C)CC[C@@H]1[C@]32OO4 [artemisinin] |  | exhibited similar morphological characteristics |  |  |
